Experimental data published in patent US20180333382A1, “PHARMACEUTICAL COMPOSITIONS COMPRISING DGLA AND USE OF SAME” (DS Biopharma Limited, priority 2017, published 2018).

Key:
[1] = Phase one study part 1: single dose plasma PK of free and total DGLA, fasted; format: in vivo, human; conditions: for half-life / Tmax: both sexes, human, plasma, oral; for half-life: read-out: t1/2, median, free DGLA, baseline-corrected plasma (converted)
Protocol: A single-center, double-blind, randomized, placebo-controlled, two part Phase one study was performed in healthy male and female subjects aged 18 to 45 years inclusive. The primary objective of this study was to assess the safety and plasma pharmacokinetics (PK) of orally administered single doses and orally administered multiple doses of DS107G capsules (once daily for 28 days) in healthy subjects.
(§1) Subjects were randomly assigned in a 3:1 ratio of DG107G to placebo by block randomization. Single dose part one of the study comprised three cohorts of eight subjects each, with the addition of Cohort four based on evaluation of the safety data of Cohort three by the Safety Monitoring Committee (SMC). A single oral dose of DS107G or matching placebo was administered to fasted subjects in Cohorts one to three (500, 1000, and 2000 mg, respectively) in parallel; subjects in Cohort four were administered a dose of 4000 mg following completion of Cohort three. Subjects in Cohort two received 1000 mg or matching placebo in the fed state at 14 days after the first dose.
Safety assessments were monitored throughout the study.
In Part one of the study, subjects in Cohorts one to three were administered a single dose of study drug (either 500-, 1000-, or 2000-mg as 500-mg DS107G capsules or matching placebo capsules) in parallel on study Day 1 after at least an 8-hour fast, according to Table 20. Cohort 4 was initiated following the review of safety data from Cohort 3 by the SMC.
Analysis of populations included the following: • The Intention-to-Treat (ITT) population consists of all randomized subjects who had been administered at least 1 dose of study drug. • The Per Protocol (PP) population consists of all subjects in the ITT population who had no major protocol violation, as defined in the SAP. • The PK population contains all subjects included in the PP population who had evaluable PK data derived from plasma. A plasma concentration observation was considered a valid, evaluable measurement if the following data were available: study identification number, randomization number, date and time of sampling, dose and concentration. A series of such measurements from the same sample were considered complete if each protocol prescribed concentration was evaluable. Plasma PK data were evaluable by definition if the data contained a complete series of observations. Any missing plasma PK observation would result in incomplete PK data, thus a subject with any missing plasma PK observation was excluded from the PK population. Subjects randomized to placebo were also excluded from the PK population.

[2] = Phase one study: effect of food on single 1000 mg dose PK (fasted vs fed); format: in vivo, human; conditions: for AUC0-24, mean, free DGLA, baseline-corrected plasma / AUC0-24/Dose, mean, free DGLA, baseline-corrected plasma / AUC0-24/Dose, mean, total DGLA, baseline-corrected plasma / AUC0-inf, mean, free DGLA, baseline-corrected plasma / AUC0-inf/Dose, mean, free DGLA, baseline-corrected plasma / CL/F, mean, free DGLA, baseline-corrected plasma / Cmax, mean, free DGLA, baseline-corrected plasma / Cmax/Dose, mean, free DGLA, baseline-corrected plasma / Cmax/Dose, mean, total DGLA, baseline-corrected plasma / λz, mean, free DGLA, baseline-corrected plasma / λz, mean, total DGLA, baseline-corrected plasma / half-life / Tmax: 1000 mg single dose; for mean baseline-corrected AUC0-24, total DGLA vs free DGLA / mean baseline-corrected Cmax, total DGLA vs free DGLA / half-life / Tmax: 1000 mg; for half-life / Tmax: human, plasma, oral; for half-life: read-out: t1/2, median, free DGLA, baseline-corrected plasma (converted); for Tmax: read-out: tmax, median, free DGLA, baseline-corrected plasma
Protocol: as §1
Food effect was evaluated in Cohort two at least 14 days after the first dose at which time a second single dose was administered. Subjects were administered a 1000-mg dose of study drug with 240 mL of water after a 10-hour fasting period and 30 minutes after starting consumption of a meal. Subjects then refrained from food intake for at least 4 hours after dosing. Food consumption was standardized for at least 12 hours after dosing using a standardized high-fat meal (800 to 1000 kcal with 500 to 600 kcal from fat and 250 kcal from carbohydrates). A typical standard test meal consisted of two eggs fried in butter, two strips of bacon, two slices of toast with butter, 120 mL of hash brown potatoes, and 240 mL of whole milk.
Subjects in Cohort two undergoing evaluation of the food effect on oral 1000 mg DGLA capsules were restricted from food consumption for at least 4 hours after dosing. Food consumption was standardized for at least 12 hours post dose using a standardized high-fat meal.

CCCCC/C=C\C/C=C\C/C=C\CCCCCCC(=O)O [DS107G, Dihomo gamma linolenic acid]
AUC0-24, mean, free DGLA, baseline-corrected plasma ([1]; 500 mg single dose): 2728.1 ng·h/mL | AUC0-24/Dose, mean, free DGLA, baseline-corrected plasma ([1]; 500 mg single dose): 5.46 h/kL | AUC0-24/Dose, mean, total DGLA, baseline-corrected plasma ([1]; 500 mg single dose): 79.11 h/kL | AUC0-inf, mean, free DGLA, baseline-corrected plasma ([1]; 500 mg single dose): 21483.3 ng·h/mL | AUC0-inf/Dose, mean, free DGLA, baseline-corrected plasma ([1]; 500 mg single dose): 42.97 h/kL | AUC0-inf/Dose, mean, total DGLA, baseline-corrected plasma ([1]; 500 mg single dose): 8831.93 h/kL | CL/F, mean, free DGLA, baseline-corrected plasma ([1]; 500 mg single dose): 0.0306 kL/h | Cmax, mean, free DGLA, baseline-corrected plasma ([1]; 500 mg single dose): 934.6 ng/mL | Cmax/Dose, mean, free DGLA, baseline-corrected plasma ([1]; 500 mg single dose): 1.869 kL⁻¹ | Cmax/Dose, mean, total DGLA, baseline-corrected plasma ([1]; 500 mg single dose): 14.400 kL⁻¹ | λz, mean, free DGLA, baseline-corrected plasma ([1]; 500 mg single dose): 0.0035 h⁻¹ | λz, mean, total DGLA, baseline-corrected plasma ([1]; 500 mg single dose): 0.0013 h⁻¹ | AUC0-24, mean, free DGLA, baseline-corrected plasma ([1]; 1000 mg single dose): 3998.5 ng·h/mL | AUC0-24/Dose, mean, free DGLA, baseline-corrected plasma ([1]; 1000 mg single dose): 4.00 h/kL | AUC0-24/Dose, mean, total DGLA, baseline-corrected plasma ([1]; 1000 mg single dose): 215.37 h/kL | AUC0-inf, mean, free DGLA, baseline-corrected plasma ([1]; 1000 mg single dose): 218955.6 ng·h/mL | AUC0-inf/Dose, mean, free DGLA, baseline-corrected plasma ([1]; 1000 mg single dose): 218.96 h/kL | AUC0-inf/Dose, mean, total DGLA, baseline-corrected plasma ([1]; 1000 mg single dose): 4031.41 h/kL | CL/F, mean, free DGLA, baseline-corrected plasma ([1]; 1000 mg single dose): 0.1866 kL/h | Cmax, mean, free DGLA, baseline-corrected plasma ([1]; 1000 mg single dose): 1602.8 ng/mL | Cmax/Dose, mean, free DGLA, baseline-corrected plasma ([1]; 1000 mg single dose): 1.603 kL⁻¹ | Cmax/Dose, mean, total DGLA, baseline-corrected plasma ([1]; 1000 mg single dose): 15.750 kL⁻¹ | λz, mean, free DGLA, baseline-corrected plasma ([1]; 1000 mg single dose): 0.0487 h⁻¹ | λz, mean, total DGLA, baseline-corrected plasma ([1]; 1000 mg single dose): 0.0136 h⁻¹ | AUC0-24, mean, free DGLA, baseline-corrected plasma ([1]; 2000 mg single dose): 6429.0 ng·h/mL | AUC0-24/Dose, mean, free DGLA, baseline-corrected plasma ([1]; 2000 mg single dose): 3.21 h/kL | AUC0-24/Dose, mean, total DGLA, baseline-corrected plasma ([1]; 2000 mg single dose): 105.25 h/kL | AUC0-inf, mean, free DGLA, baseline-corrected plasma ([1]; 2000 mg single dose): 26877.0 ng·h/mL | AUC0-inf/Dose, mean, free DGLA, baseline-corrected plasma ([1]; 2000 mg single dose): 13.44 h/kL | AUC0-inf/Dose, mean, total DGLA, baseline-corrected plasma ([1]; 2000 mg single dose): 1138.25 h/kL | CL/F, mean, free DGLA, baseline-corrected plasma ([1]; 2000 mg single dose): 0.1339 kL/h | Cmax, mean, free DGLA, baseline-corrected plasma ([1]; 2000 mg single dose): 2074.0 ng/mL | Cmax/Dose, mean, free DGLA, baseline-corrected plasma ([1]; 2000 mg single dose): 1.037 kL⁻¹ | Cmax/Dose, mean, total DGLA, baseline-corrected plasma ([1]; 2000 mg single dose): 8.867 kL⁻¹ | λz, mean, free DGLA, baseline-corrected plasma ([1]; 2000 mg single dose): 0.0200 h⁻¹ | λz, mean, total DGLA, baseline-corrected plasma ([1]; 2000 mg single dose): 0.0084 h⁻¹ | AUC0-24, mean, free DGLA, baseline-corrected plasma ([1]; 4000 mg single dose): 9436.8 ng·h/mL | AUC0-24/Dose, mean, free DGLA, baseline-corrected plasma ([1]; 4000 mg single dose): 2.36 h/kL | AUC0-24/Dose, mean, total DGLA, baseline-corrected plasma ([1]; 4000 mg single dose): 109.44 h/kL | AUC0-inf, mean, free DGLA, baseline-corrected plasma ([1]; 4000 mg single dose): 17113.6 ng·h/mL | AUC0-inf/Dose, mean, free DGLA, baseline-corrected plasma ([1]; 4000 mg single dose): 4.28 h/kL | AUC0-inf/Dose, mean, total DGLA, baseline-corrected plasma ([1]; 4000 mg single dose): 1493.38 h/kL | CL/F, mean, free DGLA, baseline-corrected plasma ([1]; 4000 mg single dose): 0.2420 kL/h | Cmax, mean, free DGLA, baseline-corrected plasma ([1]; 4000 mg single dose): 3021.8 ng/mL | Cmax/Dose, mean, free DGLA, baseline-corrected plasma ([1]; 4000 mg single dose): 0.755 kL⁻¹ | Cmax/Dose, mean, total DGLA, baseline-corrected plasma ([1]; 4000 mg single dose): 6.471 kL⁻¹ | λz, mean, free DGLA, baseline-corrected plasma ([1]; 4000 mg single dose): 0.0603 h⁻¹ | λz, mean, total DGLA, baseline-corrected plasma ([1]; 4000 mg single dose): 0.0102 h⁻¹ | half-life ([1]; 500 mg single dose): 206 h | Tmax ([1]; 500 mg single dose, read-out: tmax, median, free DGLA, baseline-corrected plasma): 4 h | half-life ([1]; 1000 mg single dose): 28.3 h | Tmax ([1]; 1000 mg single dose, read-out: tmax, median, free DGLA, baseline-corrected plasma): 4 h | half-life ([1]; 2000 mg single dose): 57.3 h | Tmax ([1]; 2000 mg single dose, read-out: tmax, median, free DGLA, baseline-corrected plasma): 4 h | half-life ([1]; 4000 mg single dose): 67.5 h | Tmax ([1]; 4000 mg single dose, read-out: tmax, median, free DGLA, baseline-corrected plasma): 4 h | Tmax ([1]; single dose 500-4000 mg, read-out: median time to maximum concentration (Tmax), free DGLA): 4 h | dose dependence of mean baseline-corrected Cmax and AUC0-24, free and total DGLA ([1]; single dose 500-4000 mg): increased in a linear manner | AUC0-24, mean, free DGLA, baseline-corrected plasma ([2]; fasted): 3998.5 ng·h/mL | AUC0-24/Dose, mean, free DGLA, baseline-corrected plasma ([2]; fasted): 4.00 h/kL | AUC0-24/Dose, mean, total DGLA, baseline-corrected plasma ([2]; fasted): 215.37 h/kL | AUC0-inf, mean, free DGLA, baseline-corrected plasma ([2]; fasted): 218955.6 ng·h/mL | AUC0-inf/Dose, mean, free DGLA, baseline-corrected plasma ([2]; fasted): 218.96 h/kL | CL/F, mean, free DGLA, baseline-corrected plasma ([2]; fasted): 0.1866 kL/h | Cmax, mean, free DGLA, baseline-corrected plasma ([2]; fasted): 1602.8 ng/mL | Cmax/Dose, mean, free DGLA, baseline-corrected plasma ([2]; fasted): 1.603 kL⁻¹ | Cmax/Dose, mean, total DGLA, baseline-corrected plasma ([2]; fasted): 15.750 kL⁻¹ | λz, mean, free DGLA, baseline-corrected plasma ([2]; fasted): 0.0487 h⁻¹ | λz, mean, total DGLA, baseline-corrected plasma ([2]; fasted): 0.0136 h⁻¹ | AUC0-24, mean, free DGLA, baseline-corrected plasma ([2]; fed): 2102.7 ng·h/mL | AUC0-24/Dose, mean, free DGLA, baseline-corrected plasma ([2]; fed): 2.10 h/kL | AUC0-24/Dose, mean, total DGLA, baseline-corrected plasma ([2]; fed): 117.39 h/kL | AUC0-inf, mean, free DGLA, baseline-corrected plasma ([2]; fed): 29150.8 ng·h/mL | AUC0-inf/Dose, mean, free DGLA, baseline-corrected plasma ([2]; fed): 29.15 h/kL | CL/F, mean, free DGLA, baseline-corrected plasma ([2]; fed): 0.1658 kL/h | Cmax, mean, free DGLA, baseline-corrected plasma ([2]; fed): 520.2 ng/mL | Cmax/Dose, mean, free DGLA, baseline-corrected plasma ([2]; fed): 0.520 kL⁻¹ | Cmax/Dose, mean, total DGLA, baseline-corrected plasma ([2]; fed): 10.317 kL⁻¹ | λz, mean, free DGLA, baseline-corrected plasma ([2]; fed): 0.0403 h⁻¹ | λz, mean, total DGLA, baseline-corrected plasma ([2]; fed): 0.0805 h⁻¹ | mean baseline-corrected AUC0-24, total DGLA vs free DGLA ([2]; fasted): ~54 fold | mean baseline-corrected Cmax, total DGLA vs free DGLA ([2]; fasted): ~10 fold | mean baseline-corrected AUC0-24, total DGLA vs free DGLA ([2]; fed): ~56 fold | mean baseline-corrected Cmax, total DGLA vs free DGLA ([2]; fed): ~20 fold | half-life ([2]; fasted): 28.3 h | Tmax ([2]; fasted): 4 h | half-life ([2]; fed): 141 h | Tmax ([2]; fed): 5 h | free DGLA Cmax occurred sooner under fasted than fed conditions (median) ([2]; single 1000-mg dose): 1 h | higher rate and extent of total DGLA absorption under fasted conditions (mean Cmax and AUC0-24) ([2]; single 1000-mg dose): approximately 50% | mean baseline-corrected free DGLA Cmax, fasted vs fed ([2]; single 1000-mg dose): about 3 fold | mean free DGLA baseline-corrected AUC0-24, fasted vs fed ([2]; single 1000-mg dose): about 2 fold | total DGLA mean baseline-corrected AUC0-24, fasted vs fed ([2]; single 1000-mg dose): about 1.8 fold | total DGLA mean baseline-corrected Cmax, fasted vs fed ([2]; single 1000-mg dose): about 1.5 fold | total DGLA tmax occurred sooner under fasted than fed conditions ([2]; single 1000-mg dose): about 50%
